The values that follow are results of earlier work, collected in patent publication US20020018777A1, “STERILIZATION OF VIRUS INFECTED PLASMA” (priority 1995, published 2002).

For the data set the following is noted: concentrated BPL, animals.

Turning to `O=C1CCO1` [BPL, β-propiolactone], the carcinogenicity entry is “carcinogenic”.
